PMC6271944 (Molecules, 2014)

Assays:
[1] = target: T1, CYP3A2 (Rattus norvegicus, UniProt P05183); assay: CYP inhibition in rat liver microsomes, substrate cocktail, LC-MS/MS (midazolam); type: in vitro ADME; settings: pH 7.4, probe midazolam 2 μM, read-out: IC50 for RLM, CYP3A2 (table row CYP3A4)
T1 sequence (P05183 1-504): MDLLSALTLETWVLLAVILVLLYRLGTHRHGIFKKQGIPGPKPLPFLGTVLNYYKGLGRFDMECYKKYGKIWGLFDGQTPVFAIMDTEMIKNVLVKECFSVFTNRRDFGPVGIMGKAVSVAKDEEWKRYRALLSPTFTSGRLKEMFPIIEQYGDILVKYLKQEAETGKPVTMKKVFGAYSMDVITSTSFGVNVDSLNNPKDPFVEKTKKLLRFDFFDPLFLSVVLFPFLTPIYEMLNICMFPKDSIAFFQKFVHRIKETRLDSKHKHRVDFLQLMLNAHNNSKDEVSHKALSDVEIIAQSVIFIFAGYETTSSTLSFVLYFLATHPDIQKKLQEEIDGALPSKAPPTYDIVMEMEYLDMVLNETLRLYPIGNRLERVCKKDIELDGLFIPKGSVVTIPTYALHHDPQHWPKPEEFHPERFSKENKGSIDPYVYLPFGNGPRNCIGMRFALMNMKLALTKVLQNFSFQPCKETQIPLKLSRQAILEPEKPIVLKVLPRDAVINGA
Description: Positive controls (furafyline for CYP1A2, montelukast for CYP2C8, sulfaphenazole for CYP2C9, S-(+)-N-3-benzylnirvanol for CYP2C19, quinidine for CYP2D6, ketoconazole for CYP3A4) and specific substrates (phenacetin for CYP1A2, paclitaxel for CYP2C8, diclofenac for CYP2C9, S-mephenytoin for CYP2C19, dextromethorphan for CYP2D6, midazolam for CYP3A4) are consistent with our previous papers. The substrates were used at concentrations approximately equal to their respective Michaelis-Menten constant (Km) values: 10 μM phenacetin, 5 μM paclitaxel, 5 μM diclofenac, 200 μM S-mephenytoin, 5 μM dextromethorphan, and 2 μM midazolam. NADP^+ was added after a 15 min preincubation of all other components at 37 °C. After a given incubation time (30 min), the reactions were terminated by addition of 60 μL ice-cold acetonitrile containing gemfibrozil and buspirone as internal standards. Incubation samples were stored at −80 °C until used in liquid chromatography-tandem mass spectrometry (LC-MS/MS) analysis. The mixture was centrifuged at 3,500 rpm for 5 min. The supernatant was mixed with equal volume of a 1:1 mixture of methanol and water and 20 μL of the final mixture was used for LC-MS/ MS analysis. […]
The CYP inhibition potential were evaluated by measuring the formation of one or more metabolites of the test substrates. […]

[2] = tested on: UGT1A1; design: dose or concentration left out as unconfirmed; settings: cited from earlier work
[3] = target: T2, CYP1A2 (Rattus norvegicus, UniProt P04799); settings: 30 mg/kg; cited from earlier work
T2 sequence (P04799 1-513): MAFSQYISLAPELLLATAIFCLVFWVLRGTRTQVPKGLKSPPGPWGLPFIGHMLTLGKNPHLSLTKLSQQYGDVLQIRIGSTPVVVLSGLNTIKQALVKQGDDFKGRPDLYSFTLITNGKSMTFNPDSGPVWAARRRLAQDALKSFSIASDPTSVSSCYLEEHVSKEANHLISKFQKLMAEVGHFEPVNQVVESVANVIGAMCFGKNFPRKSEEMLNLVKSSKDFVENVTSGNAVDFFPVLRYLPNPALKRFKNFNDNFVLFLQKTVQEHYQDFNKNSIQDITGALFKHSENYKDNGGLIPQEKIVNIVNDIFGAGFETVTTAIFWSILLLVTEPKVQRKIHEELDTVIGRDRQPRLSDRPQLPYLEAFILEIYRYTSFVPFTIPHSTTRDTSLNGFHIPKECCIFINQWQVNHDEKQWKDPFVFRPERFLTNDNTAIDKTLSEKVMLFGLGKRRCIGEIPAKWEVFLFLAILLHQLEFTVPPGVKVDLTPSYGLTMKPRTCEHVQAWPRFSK

O=C(O)[C@H]1O[C@@H](Oc2cc3oc(-c4ccc(O)cc4)cc(=O)c3c(O)c2O)[C@H](O)[C@@H](O)[C@@H]1O [scutellarin, Scutellarin]
IC50 at 30 min [1]: > 100 µM | inhibition towards the activity of UGT1A1 [2]: 48.8% | inhibition of CYP1A2 activity in whole animal studies [3]: weakly inhibited
